In one assay the target is T1, NO-Synthase (iNOS) (Mus musculus, UniProt P29477).
T1 construct: wird die Neusynthese des NO-produzierenden Enzyms NO-Synthase (iNOS) induziert; endogenous in cells; host or cells: RAW 264.7 mouse macrophages stimulated with LPS and γ-interferon
In words: NO measurement by oxyhaemoglobin on macrophages (inhibition of NO release, LPS/γIFN-stimulated). Conditions: Mäusemakrophagen RAW 264.7, stimulated with LPS + γIFN for 4 h, 120 min incubation with test substance; read-out: IC₅₀-Wert. The format is cell-based, Maus.

The target in assay [1] is induzierbaren NO-Synthase (Homo sapiens, UniProt P35228). In words: NO synthase activity assay: quantification of coproduct 3H-L-citrulline formed from 3H-L-arginine. The assay is classed as biochemical. The note with it: read-out: Restaktivität. From the text: Die erfindungsgemäße Hemmung der NO-Freisetzung durch die Verbindungen der allgemeinen Formel I kann durch einen Aktivitätsassay bestimmt werden, der auf Arbeiten von Bredt und Snyder sowie Schmidt et al. basiert (s. D.S. Bredt und S.S. Snyder, Isolation of nitric oxide synthase, a calmodulin-requiring enzyme, Proc. Natl. Acad. Sci. USA 87 (1990), 682; H.H.H.W.Schmidt et al., Purification of a soluble isoform of guanylyl cyclase-activating factor synthase, Proc. Natl. Acad. Sci. USA 88 (1991), 365). Hierbei wird für gereinigte NO-Synthase (NOS) das bei der NO-Bildung anfallende Coprodukt L-Citrullin quantitativ erfaßt. Dies geschieht durch den Einsatz von ³H-radiomarkiertem L-Arginin als Substrat der Enzymreaktion, das zu ³H-L-Citrullin und NO umgesetzt wird. Nach Beendigung der Enzyminkubation wird […]; die durch Flüssigkeitsszintillationsmessung ermittelte ³H-Aktivität entspricht dann der Menge an L-Citrullin.
• a) Die Substanz ist analog Beispiel 2 erhältlich. Weiße Kristalle vom Schmp. 153 °C. • b) Die pharmakologische Wirkung wurde in dem oben beschriebenen Aktivitätsassy ermittelt, bei dem das von der NO-Synthase als Coprodukt gebildete Citrullin bestimmt wird. Es wurden folgende Hemmungen der induzierbaren NO-Synthase beobachtet: […]

Counter-ions that a name gives are not always drawn.

Method for NO-Synthase (iNOS): Die Hemmung der NO-Freisetzung durch die Verbindungen der allgemeinen Formel I kann auch durch NO-Messung mittels Oxyhämoglobin auf Makrophagen wie folgt bestimmt werden:
Die subkonfluenten Zellen werden mit dem Zellschaber abgekratzt, in Medium aufgenommen, die Zellzahl bestimmt (Zählung in Trypanblaulösung 0,2 %) und in 24-Napfplatten (1 x 10⁶ Zellen/ml, 1 ml/Napf) ausgesät.
Dazu wird das Kulturmedium von den Zellen abgesaugt und 1 ml/Napf (24-Napfplatte) Inkubationsmedium (MEM ohne Phenolrot (Biochrom F0385)), konditioniert mit 4mM Glutamin, 3,5 g Glukose/l, 3,7 g NaHCO₃/l, 110 mg Natriumpyruvat/l, 50 U/50 µg/ml Pen/Strep und 5 % FKS, aufgegeben. Pro ml Inkubationsmedium werden 1 µl LPS und 1 µl γIFN pipettiert.
Daraus ergeben sich folgende Konzentrationen der Stimulatoren: 140 ng LPS/ml + 5 U γIFN/ml [formula] Während der Stimulation über 4 Stunden wird die Neusynthese des NO-produzierenden Enzyms NO-Synthase (iNOS) induziert. Nach diesem Inkubationszeitraum wird das Inkubationsmedium abgesaugt und jeder Napf zweimal mit frischem Inkubationsmedium gespült. […] Als Kontrolle wird das konditionierte Versuchsmedium nur mit dem Lösungsmittel der Testsubstanz versetzt.
Nach dem Abpipettieren des Versuchsmediums wird die Cytotoxizität der Testsubstanz geprüft (Zellviabilität).

As for `NC1=NCCCS1` [Beispiel 1, 2-Amino-5,6-dihydro-4H-1,3-thiazin-Hydrobromid], the IC50 on NO-Synthase (iNOS) came out at 1300 nM.

Turning to `CC1(C)CCSC(N)=N1` [Beispiel 3, 2-Amino-4,4-dimethyl-5,6-dihydro-1,3-thiazin-Hydrochlorid], the activity at 1 µM in assay [1] (Konzentration: 1 µM) was found to be 15%. In assay [1] (Konzentration: 10 µM), the activity at 10 µM was 12%.

(Values after patent EP0713704A1, “2-Amino-1,3-thiazines as nitric oxide synthase inhibitors” (HOECHST AKTIENGESELLSCHAFT, priority 1994, dated 1996).)
